Results on six compounds are retold here after ChEMBL document CHEMBL4804281, “STK4 inhibitors for treatment of hematologic malignancies” (2020).

SMILES strings stand for the structures. Calls of active or inactive are those of the source. No cut-off for these calls is given here. Bounds are passed on as bounds.

Experiment [1] deals with Ribosomal protein S6 kinase alpha-2 (Homo sapiens) (UniProt Q15349). The experiment is described as follows: Inhibition of RSK3 domain 1 in human NCI-H929 cells at 10 uM by mass spectroscopic analysis relative to control. It is filed as cell-based.
The target of experiment [2] is 5'-AMP-activated protein kinase catalytic subunit alpha-2 (Homo sapiens) (UniProt P54646). The experiment is described as follows: Inhibition of AMPKa2 in human NCI-H929 cells at 10 uM by mass spectroscopic analysis relative to control. It counts as cell-based.
For experiment [3], the target named is Serine/threonine-protein kinase MARK1 (Homo sapiens) (UniProt Q9P0L2). The experiment can be described thus: Inhibition of MARK1 in human NCI-H929 cells at 10 uM by mass spectroscopic analysis relative to control. It counts as cell-based.
A further experiment deals with MM1.S. The experiment is described as follows: Downregulation of phosphorylated-MOB1 protein level in human MM1.S cells at 1 to 10 uM measured after 6 hrs by Western blot analysis. It is filed as functional, cell-based. The following applies: dose 1-10 µM.
Experiment [4] addresses Serine/threonine-protein kinase 25 (Homo sapiens) (UniProt O00506). The experiment is described as follows: Inhibition of YSK1 in human NCI-H929 cells at 10 uM by mass spectroscopic analysis relative to control. It is filed as cell-based.
Experiment [5] deals with Cyclin-dependent kinase 19 (Homo sapiens) (UniProt Q9BWU1). The experiment can be described thus: Inhibition of CDK11 in human NCI-H929 cells at 10 uM by mass spectroscopic analysis relative to control. It is filed as cell-based.
For experiment [6], the target named is Cyclin-dependent kinase 11B (Homo sapiens) (UniProt P21127). The experiment can be described thus: Inhibition of PITSLRE in human NCI-H929 cells at 10 uM by mass spectroscopic analysis relative to control. It counts as cell-based.
Experiment [7] concerns the target DNA-dependent protein kinase catalytic subunit (Homo sapiens) (UniProt P78527). The experiment can be described thus: Inhibition of DNAPK in human NCI-H929 cells at 10 uM by mass spectroscopic analysis relative to control. It counts as cell-based.
The target in experiment [8] is Dual specificity mitogen-activated protein kinase kinase 2 (Homo sapiens) (UniProt P36507). The experiment is described as follows: Inhibition of MAP2K2 in human NCI-H929 cells at 10 uM by mass spectroscopic analysis relative to control. It counts as cell-based.
Experiment [9] deals with Microtubule-associated serine/threonine-protein kinase 1 (Homo sapiens) (UniProt Q9Y2H9). The experiment is described as follows: Inhibition of MAST1 in human NCI-H929 cells at 10 uM by mass spectroscopic analysis relative to control. It counts as cell-based.
The target in experiment [10] is T1, Tyrosine-protein kinase receptor TYRO3 (Homo sapiens) (UniProt Q06418).
T1 sequence (whole entry): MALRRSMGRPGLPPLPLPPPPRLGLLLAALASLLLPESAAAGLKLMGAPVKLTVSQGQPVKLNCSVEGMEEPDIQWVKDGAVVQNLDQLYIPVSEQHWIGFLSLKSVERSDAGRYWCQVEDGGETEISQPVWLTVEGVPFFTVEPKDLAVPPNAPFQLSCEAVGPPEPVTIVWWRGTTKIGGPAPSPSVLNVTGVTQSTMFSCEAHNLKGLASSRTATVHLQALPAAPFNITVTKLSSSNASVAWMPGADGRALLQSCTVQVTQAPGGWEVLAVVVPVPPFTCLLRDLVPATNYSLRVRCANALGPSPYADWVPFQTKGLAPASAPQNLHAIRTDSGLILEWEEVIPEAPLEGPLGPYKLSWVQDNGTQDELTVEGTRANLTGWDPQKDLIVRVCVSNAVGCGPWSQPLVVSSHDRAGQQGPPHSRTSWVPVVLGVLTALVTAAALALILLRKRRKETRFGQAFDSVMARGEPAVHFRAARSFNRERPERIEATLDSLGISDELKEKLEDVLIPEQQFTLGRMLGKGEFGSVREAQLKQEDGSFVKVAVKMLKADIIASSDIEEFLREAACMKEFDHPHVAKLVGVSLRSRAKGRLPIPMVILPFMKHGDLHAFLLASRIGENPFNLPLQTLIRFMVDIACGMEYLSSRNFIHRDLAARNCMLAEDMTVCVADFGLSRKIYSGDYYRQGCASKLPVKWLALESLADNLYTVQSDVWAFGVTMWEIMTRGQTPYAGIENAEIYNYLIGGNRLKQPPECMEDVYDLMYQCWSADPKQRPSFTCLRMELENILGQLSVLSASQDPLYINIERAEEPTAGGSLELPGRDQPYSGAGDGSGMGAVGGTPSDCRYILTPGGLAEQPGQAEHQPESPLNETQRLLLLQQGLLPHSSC
The experiment can be described thus: Inhibition of TYRO3 in human NCI-H929 cells at 10 uM by mass spectroscopic analysis relative to control. It is filed as cell-based.

The target in experiment [11] is Microtubule-associated serine/threonine-protein kinase 2 (Homo sapiens) (UniProt Q6P0Q8). The experiment is described as follows: Inhibition of MAST2 in human NCI-H929 cells at 10 uM by mass spectroscopic analysis relative to control. It is filed as cell-based.
The target of experiment [12] is T2, TGF-beta receptor type-1 (Homo sapiens) (UniProt P36897).
T2 sequence (whole entry): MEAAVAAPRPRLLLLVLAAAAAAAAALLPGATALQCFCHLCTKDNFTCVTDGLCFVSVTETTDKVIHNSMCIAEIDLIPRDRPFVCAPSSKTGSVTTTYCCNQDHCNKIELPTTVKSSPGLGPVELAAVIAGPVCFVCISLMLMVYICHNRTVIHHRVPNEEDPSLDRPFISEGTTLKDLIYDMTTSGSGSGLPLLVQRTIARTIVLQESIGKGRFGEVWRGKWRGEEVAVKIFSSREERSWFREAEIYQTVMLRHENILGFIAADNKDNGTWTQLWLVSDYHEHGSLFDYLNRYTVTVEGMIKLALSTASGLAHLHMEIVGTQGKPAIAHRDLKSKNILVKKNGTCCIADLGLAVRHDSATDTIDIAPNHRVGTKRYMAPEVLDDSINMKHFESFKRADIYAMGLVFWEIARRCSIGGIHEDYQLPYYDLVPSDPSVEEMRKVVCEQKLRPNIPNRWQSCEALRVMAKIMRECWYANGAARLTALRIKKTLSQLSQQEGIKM
The experiment is described as follows: Inhibition of TGFBR1 in human NCI-H929 cells at 10 uM by mass spectroscopic analysis relative to control. It is filed as cell-based.

Cyclin-dependent kinase 11B (Homo sapiens), sequence (P21127 whole entry): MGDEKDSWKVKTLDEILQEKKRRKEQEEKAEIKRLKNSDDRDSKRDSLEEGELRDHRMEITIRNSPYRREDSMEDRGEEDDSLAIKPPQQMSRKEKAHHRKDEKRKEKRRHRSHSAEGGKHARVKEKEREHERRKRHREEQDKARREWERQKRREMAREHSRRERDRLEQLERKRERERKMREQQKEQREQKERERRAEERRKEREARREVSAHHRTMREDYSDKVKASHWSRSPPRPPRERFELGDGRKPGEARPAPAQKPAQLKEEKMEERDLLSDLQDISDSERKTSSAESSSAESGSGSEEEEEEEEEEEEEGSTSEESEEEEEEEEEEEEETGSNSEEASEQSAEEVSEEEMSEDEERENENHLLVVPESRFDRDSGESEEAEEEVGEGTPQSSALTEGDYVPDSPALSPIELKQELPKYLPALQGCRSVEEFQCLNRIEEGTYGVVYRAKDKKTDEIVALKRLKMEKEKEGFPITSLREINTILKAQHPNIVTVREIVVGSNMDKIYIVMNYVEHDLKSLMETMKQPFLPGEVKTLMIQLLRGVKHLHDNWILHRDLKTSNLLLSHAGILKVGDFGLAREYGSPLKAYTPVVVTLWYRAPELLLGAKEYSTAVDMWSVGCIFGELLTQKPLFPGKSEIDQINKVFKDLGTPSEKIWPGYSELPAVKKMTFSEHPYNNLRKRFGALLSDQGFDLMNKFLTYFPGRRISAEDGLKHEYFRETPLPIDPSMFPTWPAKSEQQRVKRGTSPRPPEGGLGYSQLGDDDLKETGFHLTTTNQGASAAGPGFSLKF
Microtubule-associated serine/threonine-protein kinase 1 (Homo sapiens), sequence (Q9Y2H9 whole entry, looked up): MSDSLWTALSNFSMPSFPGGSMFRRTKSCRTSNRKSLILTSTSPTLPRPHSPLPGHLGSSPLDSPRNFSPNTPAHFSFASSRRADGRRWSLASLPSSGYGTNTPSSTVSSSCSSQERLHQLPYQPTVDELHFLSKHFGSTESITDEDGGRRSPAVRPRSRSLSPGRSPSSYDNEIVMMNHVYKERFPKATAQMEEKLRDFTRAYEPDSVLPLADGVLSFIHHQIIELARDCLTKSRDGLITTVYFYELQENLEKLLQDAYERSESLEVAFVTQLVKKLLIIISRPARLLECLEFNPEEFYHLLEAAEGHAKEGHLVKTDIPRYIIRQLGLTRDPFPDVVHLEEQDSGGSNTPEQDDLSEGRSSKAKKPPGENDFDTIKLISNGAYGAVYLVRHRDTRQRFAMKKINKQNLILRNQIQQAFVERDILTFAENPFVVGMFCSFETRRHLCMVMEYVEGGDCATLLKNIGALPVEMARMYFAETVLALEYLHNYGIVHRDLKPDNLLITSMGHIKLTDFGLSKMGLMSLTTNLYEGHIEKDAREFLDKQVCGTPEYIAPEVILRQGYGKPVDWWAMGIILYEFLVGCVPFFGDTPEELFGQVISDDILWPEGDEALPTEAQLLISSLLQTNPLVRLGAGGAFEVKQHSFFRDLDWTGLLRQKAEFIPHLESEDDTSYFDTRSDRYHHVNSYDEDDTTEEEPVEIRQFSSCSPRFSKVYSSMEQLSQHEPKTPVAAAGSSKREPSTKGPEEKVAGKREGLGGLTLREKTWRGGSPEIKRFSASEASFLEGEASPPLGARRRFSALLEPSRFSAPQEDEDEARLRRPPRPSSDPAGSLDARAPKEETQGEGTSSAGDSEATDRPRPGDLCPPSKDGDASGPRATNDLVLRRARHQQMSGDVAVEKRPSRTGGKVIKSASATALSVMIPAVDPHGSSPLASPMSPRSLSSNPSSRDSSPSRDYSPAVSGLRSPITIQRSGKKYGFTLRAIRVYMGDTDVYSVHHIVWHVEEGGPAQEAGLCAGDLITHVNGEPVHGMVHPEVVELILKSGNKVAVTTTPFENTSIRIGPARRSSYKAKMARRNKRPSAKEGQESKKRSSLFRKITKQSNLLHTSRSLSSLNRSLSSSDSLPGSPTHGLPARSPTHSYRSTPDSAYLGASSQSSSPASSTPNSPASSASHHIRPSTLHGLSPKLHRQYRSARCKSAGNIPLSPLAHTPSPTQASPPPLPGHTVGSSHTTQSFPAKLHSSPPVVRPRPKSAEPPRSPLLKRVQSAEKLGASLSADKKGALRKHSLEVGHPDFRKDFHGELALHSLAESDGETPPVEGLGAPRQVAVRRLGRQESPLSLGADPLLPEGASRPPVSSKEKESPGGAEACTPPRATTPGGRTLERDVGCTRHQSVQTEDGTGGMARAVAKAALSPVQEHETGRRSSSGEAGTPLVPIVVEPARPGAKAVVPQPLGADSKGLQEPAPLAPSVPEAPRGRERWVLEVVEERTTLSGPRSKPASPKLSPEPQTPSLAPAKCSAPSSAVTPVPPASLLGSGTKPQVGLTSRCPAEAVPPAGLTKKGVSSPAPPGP
Serine/threonine-protein kinase MARK1 (Homo sapiens), sequence (Q9P0L2 whole entry, looked up): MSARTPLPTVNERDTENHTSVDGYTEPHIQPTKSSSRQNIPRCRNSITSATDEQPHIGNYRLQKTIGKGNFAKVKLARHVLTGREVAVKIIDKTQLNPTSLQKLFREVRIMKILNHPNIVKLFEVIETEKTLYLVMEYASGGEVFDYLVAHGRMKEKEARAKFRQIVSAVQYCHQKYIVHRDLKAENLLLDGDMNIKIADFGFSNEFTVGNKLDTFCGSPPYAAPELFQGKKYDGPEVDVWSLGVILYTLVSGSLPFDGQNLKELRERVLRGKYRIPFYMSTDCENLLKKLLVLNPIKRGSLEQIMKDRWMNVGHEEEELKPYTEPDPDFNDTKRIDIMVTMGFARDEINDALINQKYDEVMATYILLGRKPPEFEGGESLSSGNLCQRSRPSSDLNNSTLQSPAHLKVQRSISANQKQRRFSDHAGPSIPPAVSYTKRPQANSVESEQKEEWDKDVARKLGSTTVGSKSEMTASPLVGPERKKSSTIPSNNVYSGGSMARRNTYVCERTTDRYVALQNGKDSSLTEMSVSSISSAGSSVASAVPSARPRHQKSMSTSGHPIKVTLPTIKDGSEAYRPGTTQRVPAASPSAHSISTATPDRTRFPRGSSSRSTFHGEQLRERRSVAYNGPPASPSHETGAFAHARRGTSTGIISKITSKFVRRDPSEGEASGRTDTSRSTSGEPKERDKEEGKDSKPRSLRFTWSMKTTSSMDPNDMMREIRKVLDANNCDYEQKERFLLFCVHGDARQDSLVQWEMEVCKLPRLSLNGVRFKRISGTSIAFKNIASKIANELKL
Serine/threonine-protein kinase 25 (Homo sapiens), sequence (O00506 whole entry, looked up): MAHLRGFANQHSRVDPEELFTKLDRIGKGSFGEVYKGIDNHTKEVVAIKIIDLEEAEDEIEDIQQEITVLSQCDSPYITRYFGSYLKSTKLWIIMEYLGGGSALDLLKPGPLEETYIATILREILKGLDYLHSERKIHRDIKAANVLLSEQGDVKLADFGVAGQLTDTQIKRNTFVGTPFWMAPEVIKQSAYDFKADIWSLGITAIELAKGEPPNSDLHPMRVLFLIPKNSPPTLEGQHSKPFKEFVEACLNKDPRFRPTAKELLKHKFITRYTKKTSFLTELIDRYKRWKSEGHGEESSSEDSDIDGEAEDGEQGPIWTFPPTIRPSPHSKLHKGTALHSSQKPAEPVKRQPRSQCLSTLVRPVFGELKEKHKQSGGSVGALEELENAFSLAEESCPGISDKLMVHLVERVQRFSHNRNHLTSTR
5'-AMP-activated protein kinase catalytic subunit alpha-2 (Homo sapiens), sequence (P54646 whole entry, looked up): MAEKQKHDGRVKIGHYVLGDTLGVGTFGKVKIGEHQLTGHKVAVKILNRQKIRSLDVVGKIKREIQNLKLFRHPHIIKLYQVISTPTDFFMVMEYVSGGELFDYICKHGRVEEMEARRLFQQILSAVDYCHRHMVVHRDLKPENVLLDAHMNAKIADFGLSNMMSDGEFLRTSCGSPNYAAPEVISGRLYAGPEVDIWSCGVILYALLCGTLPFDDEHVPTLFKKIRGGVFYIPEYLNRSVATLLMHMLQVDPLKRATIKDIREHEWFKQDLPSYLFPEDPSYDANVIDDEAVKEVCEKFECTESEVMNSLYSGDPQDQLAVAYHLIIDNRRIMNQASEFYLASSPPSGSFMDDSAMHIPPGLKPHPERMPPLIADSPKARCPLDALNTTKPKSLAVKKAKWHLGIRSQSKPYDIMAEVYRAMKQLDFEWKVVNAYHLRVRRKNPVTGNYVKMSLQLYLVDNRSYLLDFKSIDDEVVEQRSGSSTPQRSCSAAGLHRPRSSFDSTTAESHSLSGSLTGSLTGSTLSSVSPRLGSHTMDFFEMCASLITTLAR
Cyclin-dependent kinase 19 (Homo sapiens), sequence (Q9BWU1 whole entry): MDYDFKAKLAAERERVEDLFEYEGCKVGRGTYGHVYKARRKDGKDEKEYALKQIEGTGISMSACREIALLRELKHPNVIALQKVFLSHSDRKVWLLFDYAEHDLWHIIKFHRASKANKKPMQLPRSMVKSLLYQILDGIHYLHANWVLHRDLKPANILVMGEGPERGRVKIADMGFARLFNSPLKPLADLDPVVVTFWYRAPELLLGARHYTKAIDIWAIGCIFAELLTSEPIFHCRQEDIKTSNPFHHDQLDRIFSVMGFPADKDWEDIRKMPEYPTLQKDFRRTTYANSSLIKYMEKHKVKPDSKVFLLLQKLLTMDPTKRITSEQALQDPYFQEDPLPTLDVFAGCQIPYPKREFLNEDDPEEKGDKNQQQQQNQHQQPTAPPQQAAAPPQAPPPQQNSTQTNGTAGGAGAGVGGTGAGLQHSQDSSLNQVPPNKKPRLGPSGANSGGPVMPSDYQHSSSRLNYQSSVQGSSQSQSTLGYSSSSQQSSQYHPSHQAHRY
Dual specificity mitogen-activated protein kinase kinase 2 (Homo sapiens), sequence (P36507 whole entry): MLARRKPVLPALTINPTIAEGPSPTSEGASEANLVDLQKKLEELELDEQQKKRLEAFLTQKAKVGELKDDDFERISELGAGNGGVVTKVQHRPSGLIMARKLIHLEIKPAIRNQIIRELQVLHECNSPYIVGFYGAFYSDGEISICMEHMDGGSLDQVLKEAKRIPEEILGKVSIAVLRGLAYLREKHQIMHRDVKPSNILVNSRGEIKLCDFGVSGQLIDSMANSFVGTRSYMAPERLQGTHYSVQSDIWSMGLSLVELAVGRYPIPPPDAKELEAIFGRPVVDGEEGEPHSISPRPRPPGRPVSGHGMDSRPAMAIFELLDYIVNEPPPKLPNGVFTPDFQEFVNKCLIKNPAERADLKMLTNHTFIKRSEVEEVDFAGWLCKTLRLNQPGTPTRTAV

With `CN(C1CC1)S(=O)(=O)c1ccc(-c2cnc(N)c(-c3ccc4c(c3)CCNC4=O)c2)c(F)c1`, the inhibition in experiment [1] was 0%; in experiment [2], 0%; in [3] it was 0%; in experiment [4], less than 90%; in experiment [5], 0%; in [6], 0%. Moreover, in [7], the inhibition is less than 90%. The result in the experiment with MM1.S was Active.
Regarding `COc1cc(NS(=O)(=O)C2CC2)ccc1-c1cnc(N)c(-c2ccc3c(c2)CCNC3=O)c1`, the inhibition in experiment [1], in [8], in [2], in experiment [3], in experiment [4] and in experiment [6] was 0% in each case. For the same compound, the inhibition in [9] was determined as 0%; in experiment [10], 0%; in experiment [11], 0%; in [12], 75%.
For the compound `Nc1ncc(-c2ccc(NS(=O)(=O)C3CC3)cc2F)cc1-c1ccc2c(c1)CCNC2=O`, the inhibition is 0% in experiment [1]; 0% in [8]; 0% in experiment [2]; 0% in [3]; less than 75% in experiment [4]; 0% in experiment [5]. For the same compound, the inhibition in experiment [6], in experiment [9], in experiment [10], in experiment [7], in [11] and in [12] was 0% in each case.
`Nc1ncc(-c2ccc(NS(=O)(=O)C3CC3)cc2OC2CCCCC2)cc1-c1ccc2c(c1)CCNC2=O`: the inhibition in experiment [1] was 50%; in experiment [8] it was 0%; in experiment [3], 0%; in [5], 0%; in experiment [6], 0%; in experiment [9] it was 0%. Moreover, the inhibition was 0% in experiment [10], 0% in experiment [7], 0% in experiment [11] and greater than 90% in experiment [12].
Regarding `Nc1ncc(-c2cccc3ncsc23)cc1-c1ccc2c(c1)CCNC2=O`, the inhibition in experiment [1] was 0%; in experiment [2], 0%; in experiment [3] it was 0%; in experiment [4], 0%; in [5], 50%; in experiment [6], 0%. This compound came in with an inhibition in experiment [7] of less than 75%. Also, the result in the experiment with MM1.S was Active.
Turning to `Nc1ncc(-c2cccc([N+](=O)[O-])c2F)cc1-c1ccc2c(c1)CCNC2=O`, the outcome in the experiment on MM1.S was Active. The inhibition in experiment [4] stood at 0%.
